What all share (experiment): Minimum Inhibitory Concentration (MIC) test
Common to all, as to format: cell-based

Assay [1] deals with Pseudomonas aeruginosa (ATCC 9027). Particulars: read-out: Minimum Inhibitory Concentration. The procedure:
(§1) Antimicrobial activity assessment of alpha-1,6-glucan ether compounds herein and other compounds were carried out using a standard MIC protocol. Each test compound was evaluated in two sets, one at 50-5000 ppm (high MIC actives) and the other at 3.125-100 ppm (low MIC actives). All active samples, with the exception of chitosan, were dissolved in DI water at a concentration of 1% w/v for the […] set; chitosan was instead dissolved in water acidified to pH 3.5 with hydrochloric acid. Each test compound was then serially diluted to concentrations of 0.4%, 0.2%, 0.1%, 0.04%, 0.02% and 0.01% (w/v). For the 3.125-100 ppm set, all test compounds were prepared similarly at a concentration 0.1% w/v, and then serially diluted to concentrations of 0.05%, 0.025%, 0.0125%, 0.00625% and 0.003125% (w/v). Bacteria inocula were prepared by diluting overnight cultures 1:20 in trypticase soy broth media (TSB). Yeast and mold were prepared by diluting overnight culture or monthly stock (1×10^8 cells per mL) 1:20 in potato dextrose broth media (PDB). 96-well plates were used in this test. First, 180 μL of plating media was added to each well. Next, each well received 20 μL water (control) or test compound at a specified concentration according to concentration range to be tested. Each sample was tested in triplicate. Lastly, each well received 20 μL of bacteria or fungi inoculum. Bacterial plates were incubated at 30° C. for 24 hours. Yeast and mold plates were incubated at 25° C.; yeast plates were incubated for 24 hours and mold plates were incubated for 7 days.

The test system of assay [2] is Burkholderia cepacia (ATCC 25416). The settings on record: read-out: Minimum Inhibitory Concentration. The procedure: as §1
In assay [3] the test system is Pseudomonas aeruginosa (ATCC 15442). The settings on record: read-out: Minimum Inhibitory Concentration. The procedure:
as §1

Assay [4] deals with Escherichia coli (ATCC 8739). Particulars: read-out: Minimum Inhibitory Concentration. As for the experimental part: as §1
Assay [5] deals with Staphylococcus epidermidis (ATCC 12228). The settings on record: read-out: Minimum Inhibitory Concentration. The procedure: as §1
The test system of assay [6] is Staphylococcus aureus (ATCC 6538). The settings on record: read-out: Minimum Inhibitory Concentration. The procedure:
as §1

The subject of assay [7] is Pseudomonas putida (ATCC 49128). The settings on record: read-out: Minimum Inhibitory Concentration. The procedure:
as §1

For assay [8], the system named is Klebsiella pneumoniae (ATCC 13883). The settings on record: read-out: Minimum Inhibitory Concentration. As for the experimental part:
as §1

For assay [9], the system named is Aspergillus brasiliensis (ATCC 16404). Particulars: ATCC16404, 168 h, read-out: Minimum Inhibitory Concentration. The procedure: as §1
Assay [10] has as its system Candida albicans (ATCC 10231). The settings on record: read-out: Minimum Inhibitory Concentration. As for the experimental part:
as §1

The subject of assay [11] is Enterobacter gergoviae (ATCC 33028). Particulars: Pluralibacter gergoviae, read-out: Minimum Inhibitory Concentration. As for the experimental part:
as §1

In brackets after ≈: the same amount, converted by molar mass. Like-named read-outs stand apart in the source and are kept apart here.

`CCCCCCCCCCCC[N+](C)(C)C.[Cl-]` [Comp. 11, Dodecyltrimethylammonium chloride]: the MIC in assay [1] (ATCC9027, 24 h) was 500 µg/mL; in [2] (ATCC25416, 24 h), 1000 µg/mL; in assay [3] (ATCC15442, 24 h), 500 µg/mL; in assay [4] (ATCC8739, 24 h) it was 200 µg/mL; in [5] (ATCC12228, 24 h), 100 µg/mL; in [6] (ATCC6538, 24 h), 200 µg/mL. The MIC in [7] (ATCC49128, 24 h) was 500 µg/mL; in [8] (ATCC13883, 24 h), 500 µg/mL; in [9] it was 1000 µg/mL; in [10] (ATCC10231, 24 h), 200 µg/mL; in [11] (ATCC33028, 24 h), 500 µg/mL.
For the molecule `CCCCCCCCCCCC(=O)N[C@@H](CCCNC(=N)N)C(=O)OCC` [Comp. 13, Lauroyl arginine ethyl ester], the MIC in [1] (ATCC9027, P. aeruginosa ATCC 9027, 30° C., 24 hours) was determined as 50 µg/mL (≈ 130 µM); in assay [2] (ATCC25416, B. cepacia ATCC 25416, 30° C., 24 hours), 100 µg/mL (≈ 260 µM); in [3] (ATCC15442, P. aeruginosa ATCC 15442, 30° C., 24 hours), 50 µg/mL (≈ 130 µM); in [4] (ATCC8739, E. coli ATCC 8739, 30° C., 24 hours), 50 µg/mL (≈ 130 µM); in [5] (ATCC12228, S. epidermidis ATCC 12228, 30° C., 24 hours), 12.5 µg/mL (≈ 32.5 µM); in assay [6] (ATCC6538, S. aureus ATCC 6538, 30° C., 24 hours) it was 12.5 µg/mL (≈ 32.5 µM). The MIC amounted to 25 µg/mL (≈ 65 µM) in assay [7] (ATCC49128, P. putida ATCC 49128, 30° C., 24 hours); 50 µg/mL (≈ 130 µM) in [8] (ATCC13883, K. pneumoniae ATCC 13883, 30° C., 24 hours); 100 µg/mL (≈ 260 µM) in assay [9] (A. brasiliensis ATCC 16404, 25° C., 7 days); 100 µg/mL (≈ 260 µM) in assay [10] (ATCC10231, C. albicans ATCC 10231, 25° C., 24 hours); 100 µg/mL (≈ 260 µM) in assay [11] (ATCC33028, E. gergoviae ATCC 33028, 30° C., 24 hours).

(Values after patent US20250002695A1, “COMPOSITIONS COMPRISING CATIONIC ALPHA-1,6-GLUCAN DERIVATIVE AND ALPHA-1,3-GLUCAN” (Nutrition & Biosciences USA 4, Inc., priority 2021, published 2025).)
